Laboratory results published in patent US7718715B2, “pH-modified latex comprising a synergistic combination of biocides” (S.C. Johnson & Son, Inc., priority 2004, dated 2010).

Columns and labels:
[1] = test system: Aspergillus niger #6275; test: Challenge Test (Antimicrobial Effectiveness Test), mold inoculum; type: cell-based; set-up: key to Challenge Test result: Mold A. niger: Fail: Recovery of surviving organisms at 14 days was a failing result for the challenge test; details: for Challenge Test result: Mold A. niger: stabilized acrylic latex A, DN 22%
Method: The following cultures were obtained from American Type Culture Collection (ATCC) at 10801 University Boulevard, Manassas, Va. 20110-2209: Escherichia coli #11229, Pseudomonas aeruginosa #15442, Candida albicans #10231, Aspergillus niger #6275. The mold inoculum was 0.10 ml of A. niger culture specimen in 25 grams of sample to give approximately 2×10^5 CFU/g. The culture specimen was obtained from 7-day-old A. niger culture grown on Sabouraud Dextrose Agar (Difco Laboratories, Detroit, Mich.) with 0.2% Triton X-100 in 0.85% saline. Each of the 25-g samples were inoculated or challenged with 0.10 ml of the bacterial inoculum, the yeast inoculum, and the mold inoculum respectively on day-0 and day-14. All samples were stored at ambient temperature. Each sample (10 microliter) was streaked on appropriate agar plates (bacteria on Tryptic Soy Agar (Difco Laboratories, Detroit, Mich.) plates with neutralizer and yeast/mold on Potato Dextrose Agar (Difco Laboratories, Detroit, Mich.) plates with neutralizer) on day-1, day-2, day-3, day-7, day-14, day-15, day-16, day-17, day-21, and day-28 to test for survivors. Streaked plates were incubated at appropriate temperature and time (48-hr at 35±2° C. for bacteria and 72-hr at 28±2° C. for yeast/mold). On day-14, each sample was re-inoculated with appropriate inoculum after streaking on agar plates. Plates were read after incubation time. Recovery of surviving organisms at 14 days was a failing result for the challenge test. Biocides were always added after the reaction has been completed and after the batch has been cooled to <50° C. The desired temperature was dependent on the specific biocide. Many biocides become deactivated if exposed to high temperatures for an extended time. Each biocide was diluted with about 5× its weight with DI water and slowly added to the batch with good agitation. The dilution is to prevent the biocide from shocking the latex. The batch was mixed for a minimum of 20 minutes after the biocide was added to ensure good incorporation. If any temporary destabilization to the latex had occurred, it had time to recover prior to filtration. The Challenge Test is a qualitative laboratory procedure used to differentiate poorly and marginally preserved products from well-preserved products. Products are intentionally inoculated with test organisms and then evaluated by use of streak plating technique to determine if microbial reduction has been attained.

[2] = test system: Escherichia coli, Pseudomonas aeruginosa, Candida albicans, Aspergillus niger; test: Challenge Test, all test organisms; type: cell-based; details: stabilized acrylic latex A
Method: The following cultures were obtained from American Type Culture Collection (ATCC) at 10801 University Boulevard, Manassas, Va. 20110-2209: Escherichia coli #11229, Pseudomonas aeruginosa #15442, Candida albicans #10231, Aspergillus niger #6275. The bacterial inoculum was 0.10 ml of a 1:1 mixture of the 24-hr±4 hr culture of E. coli and P. aeruginosa in 25 grams of sample to give approximately 4×10^6 CFU/g. Both E. coli culture and the P. aeruginosa culture were grown in Nutrient Broth (Difco Laboratories, Detroit, Mich.) at 35° C. The yeast inoculum was 0.10 ml of a 72-hr±4 hr culture of C. albicans in 25 grams of sample to give approximately 2×10^5 CFU/g. The C. albicans culture was grown in Potato Dextrose Broth (Difco Laboratories, Detroit, Mich.) at 28° C. The mold inoculum was 0.10 ml of A. niger culture specimen in 25 grams of sample to give approximately 2×10^5 CFU/g. The culture specimen was obtained from 7-day-old A. niger culture grown on Sabouraud Dextrose Agar (Difco Laboratories, Detroit, Mich.) with 0.2% Triton X-100 in 0.85% saline. Each of the 25-g samples were inoculated or challenged with 0.10 ml of the bacterial inoculum, the yeast inoculum, and the mold inoculum respectively on day-0 and day-14. All samples were stored at ambient temperature. […] Plates were read after incubation time. […]

| SMILES | Challenge Test result: Mold A. niger ([1]; 0.10% Bronopol (30% active), 0.00% Bioban CS-1135, pH 6.64, Table 1) | Challenge Test result: Mold A. niger ([1]; 0.10% Bronopol (30% active), 0.00% Dowicil 75, pH 6.64, Table 3) | killing of the mold (A. niger) ([1]; 0.2% BRONOPOL, acrylic latex A) | Challenge Test result: Mold A. niger ([1]; 0.20% Bronopol (30% active), 0.00% Bioban CS-1135, pH 6.65, Table 1) | Challenge Test result: Mold A. niger ([1]; 0.20% Bronopol (30% active), 0.00% Dowicil 75, pH 6.65, Table 3) | Challenge Test result: Mold A. niger ([1]; 0.50% Bronopol (30% active), 0.00% Bioban CS-1135, pH 6.58, Table 1) | Challenge Test result: Mold A. niger ([1]; 0.50% Bronopol (30% active), 0.00% Dowicil 75, pH 6.58, Table 3) | Challenge Test result: Mold A. niger ([1]; 0.80% Bronopol (30% active), 0.00% Bioban CS-1135, pH 6.57, Table 1) | Challenge Test result: Mold A. niger ([1]; 0.80% Bronopol (30% active), 0.00% Dowicil 75, pH 6.57, Table 3) | Challenge Test result: Mold A. niger ([1]; 1.20% Bronopol (30% active), 0.00% Bioban CS-1135, pH 6.57, Table 1) | Challenge Test result: Mold A. niger ([1]; 1.20% Bronopol (30% active), 0.00% Dowicil 75, pH 6.57, Table 3) | control of the growth of Aspergillus niger ([1]; maximum allowable level, test stabilized acrylic latex) | concentration required to kill all organisms [2] | Challenge Test result: Mold A. niger ([1]; 0.10% Bioban CS-1135, 0.00% Bronopol, pH 6.68) | Challenge Test result: Mold A. niger ([1]; 0.20% Bioban CS-1135, 0.00% Bronopol, pH 6.69) | Challenge Test result: Mold A. niger ([1]; 0.80% Bioban CS-1135, 0.00% Bronopol, pH 6.62) | Challenge Test result: Mold A. niger ([1]; 1.20% Bioban CS-1135, 0.00% Bronopol, pH 6.64) | Challenge Test result: Mold A. niger ([1]; 2.00% Bioban CS-1135, 0.00% Bronopol, pH 6.82) |
| --- | --- | --- | --- | --- | --- | --- | --- | --- | --- | --- | --- | --- | --- | --- | --- | --- | --- | --- |
| O=[N+]([O-])C(Br)(CO)CO [Bronopol, 2-bromo-2-nitro-1,3-propanediol] | Fail | Fail | failed to kill | Fail | Fail | Pass | Pass | Pass | Pass | Pass | Pass | failed to control | 0.5% |  |  |  |  |  |
| CC1(C)COCN1 [Bioban CS-1135, 4,4-dimethyl-oxazolidine] |  |  |  |  |  |  |  |  |  |  |  |  | 2.0% | Fail | Pass | Pass | Pass | Pass |
